Results: patent US20240261443A1, “COMPOUNDS AND COMPOSITIONS USEFUL AS RADIOTRACERS FOR IMAGING OF REACTIVE OXIDATIVE SPECIES” (Wake Forest University Health Sciences, priority 2019, published 2024)
pIC50: −log10 of the molar value.

Columns and labels:
Ex vivo serum stability = format: in vitro ADME; settings: human serum, 37° C., after 120 min of tracer synthesis
Method: The ex vivo serum stability of [^18F]KS1 and [^18F]KS2 were analyzed in human serum samples, following previously published methods (Sai et al., Peptide-based PET imaging of the tumor restricted IL13RA2 biomarker. Oncotarget 2017, 5; Sattiraju et al., IL13RA2 targeted alpha particle therapy against glioblastoma. Journal of Nuclear Medicine 2016, 57 (supplement 2), 634; Wang et al., Evaluation of F-18-labeled amino acid derivatives and [18F]FDG as PET probes in a brain tumor-bearing animal model. Nuclear Medicine and Biology 2005, 32 (4), 367-375). Briefly, radiotracer was added to the human serum sample, and incubated at 37° C. Radioactive serum mixture was injected into the QC-HPLC system at 5 min, 30 min, 1 h, 1.5 h, 2 h, 2.5 h, and 3 h post radiotracer synthesis. Radiolysis through defluorination and/or oxidation of the radiotracers (if any) can be seen as new radiochemical peaks at different retention times (Rt) than the original product peak (Jin et al., A promising F-18 labeled PET radiotracer (-)-[18F]VAT for assessing the VAChT in vivo. Journal of Nuclear Medicine 2015, 56 (supplement 3); Koglin et al., [F-18]BAY 85-8050: A novel tumor specific probe for PET imaging-Preclinical results. Journal of Nuclear Medicine 2010, 51 (supplement 2), 1535; […] et al., Imaging COX-2 expression in cancer using PET/SPECT radioligands: current status and future directions. […]

SCC-61 cells = settings: cited from earlier work
SCC-61 cell line (HNSCC) = assay: MTT cytotoxicity IC50 assay, SCC-61; format: cell-based, human; settings: SCC-61, MTT
Method: (§1) The cells were seeded at density 5×10^3 cells/well. After 24 h pre-incubation period, cells were treated with 0.01 mM to 2.0 mM of freshly prepared KS1 and KS2 along with ascorbate (n=3) for 48 h. 0.2% of DMSO served as vehicle control. After 48 h, the solutions were removed from all plates and MTT assays performed following the published protocols. IC50 values are presented as mean±SD from at least three independent experiments.
(§2) There is growing evidence for a therapeutic role of ascorbate against several cancers (Creagan et al., Failure of High-Dose Vitamin C (Ascorbic Acid) Therapy to Benefit Patients with Advanced Cancer. New England Journal of Medicine 1979, 301 (13), 687-690; Chen et al., Pharmacologic ascorbic acid concentrations selectively kill cancer cells: action as a pro-drug to deliver hydrogen peroxide to tissues. Proceedings of the National Academy of Sciences of the United States of America 2005, 102 (38), 13604-13609; Prasad et al., High Doses of Multiple Antioxidant Vitamins: Essential Ingredients in Improving the Efficacy of Standard Cancer Therapy. Journal of the American College of Nutrition 1999, 18 (1), 13-25). Pharmacologic doses of ascorbate (oral and/or intravenous) could increase the effectiveness of cancer chemotherapy in many solid cancer therapies (López-Lizaro, Dual role of hydrogen peroxide in cancer: Possible relevance to cancer chemoprevention and therapy. Cancer Letters 2007, 252 (1), 1-8; Li et al., New Developments and Novel Therapeutic Perspectives for Vitamin C. The Journal of Nutrition 2007, 137 (10), 2171-2184; Klimant et al., Intravenous vitamin C in the supportive care of cancer patients: a review and rational approach. Current Oncology 2018, 25 (2), 139-148. The primary objective of this experiment was to determine the cytotoxic effects of KS1 at pharmacological concentrations. Cancer cell lines were selected based on their high ROS implications. […] These cell lines have been studied extensively with ascorbic acid treatments (Schoenfeld et al., O(2)(·−) and H(2)O(2)-Mediated Disruption of Fe Metabolism Causes the Differential Susceptibility of NSCLC and GBM Cancer Cells to Pharmacological Ascorbate. Cancer Cell 2017, 31 (4), 487-500.e8; Chen et al., Modulators of Redox Metabolism in Head and Neck Cancer. Antioxidants & Redox Signaling 2017, 29 (16), 1660-1690; Khandrika et al., Oxidative stress in prostate cancer. Cancer Lett 2009, 282 (2), 125-136.

PC3 cell line = assay: MTT cytotoxicity IC50 assay, PC3; format: cell-based, human
Method: as §1, §2

[1] = system: SCC-61 and rSCC-61 cell lines; assay: MitoSOX fluorescence ROS assay, with or without SOD blocker; format: cell-based, human
Method: As a first-line tool to screen KS1 and KS2: SCC-61 has higher intracellular ROS than rSCC-61. MitoSOX is a mitochondrion-targeted dihydroethidium based derivative that primarily detects ROS (superoxide anion) produced within mitochondria. Mitosox assays without any ligands were used as controls. The two cell lines were treated with KS1, KS2 and ascorbate (10.0 μM) and incubated for an hour. MitoSOX (1.0 μM) in phenol red-free DMEM/F12 media was added and incubated for an additional 10 min. The cells were then washed with PBS and imaged in the same media.
In addition to testing KS1 with the MitoSOX assay, we compared our results with no ligand controls and ascorbate as a reference standard. The two cell lines were treated with KS1 and ascorbate (10.0 μM) and incubated for an hour. MitoSOX (1.0 μM) in phenol red-free DMEM/F12 media was added and incubated for an additional 10 min. The cells were then washed with PBS and imaged in the same media. Ligand specificity is commonly determined by pretreating the cells with high concentrations of blockers. Superoxide dismutase (SOD), an enzyme that selectively suppresses accumulation of ROS-superoxide peroxide anions, was added as blocker (1.0 mM) 60 min before the treatment of KS1 (Bielski et al., Chemistry of ascorbic acid radicals. in Ascorbic Acid: Chemistry, Metabolism, and Uses. Chapter. 1982; 4:81-100). Fluorescence was subsequently measured and its intensity was quantified in f.u (fluorescence units).
Ligand specificity is commonly determined by pretreating the cells with high concentrations of blockers. We used superoxide dismutase (SOD), an enzyme that selectively suppresses accumulation of ROS-superoxide peroxide anions (Bielski et al., Chemistry of ascorbic acid radicals. in Ascorbic Acid: Chemistry, Metabolism, and Uses. Chapter 1982, 4, 81-100). The same MitoSOX assay with KS1 and KS2 (10 μM) was performed by pretreating the SCC-61 cells with SOD (1.0 mM) for 60 min.

[2] = system: SCC-61 and PC3 cell lines; assay: DCFDA intracellular ROS detection assay; format: cell-based, human; settings: 2 mM, 7 h, compared to 100 μM
Description: For this, we used dichlorofluorescin diacetate (DCFDA) intracellular ROS detection assay kit and followed manufacture recommended protocol (ZHELEV et al., Docosahexaenoic Acid Sensitizes Leukemia Lymphocytes to Barasertib and Everolimus by ROS-dependent Mechanism Without Affecting the Level of ROS and Viability of Normal Lymphocytes. Anticancer Research 2016, 36 (4), 1673-1682). We studied two patient-derived tumor cell lines: SCC-61, […], and PC3, prostate cancer cell line. The maximum allowed mass for a typical clinical PET radiotracer is <100 μM (Schwarz et al., Radiochemistry and radiopharmacology. LIC-Nuclear Medicine and PET/CT: Technology and Techniques 2016, 11, 77), so we chose 10-100 μM as our concentration range for tracer-level assays. The lowest reported pharmacologic dose for ascorbate is 2.0 mM (Levine et al., Vitamin C: a concentration-function approach yields pharmacology and therapeutic discoveries. Adv Nutr 2011, 2 (2), 78-88), so we chose this dose for our pharmacological assays. We chose the ligand incubation times based on the maximum tracer uptake time (˜2 h) for a typical [^18F]-based PET radiotracer injection (Schlyer, PET tracers and radiochemistry. ANNALS-ACADEMY OF MEDICINE SINGAPORE 2004, 33 (2), 146-154).
Pharmacologic doses of ascorbate generates ROS, including H2O2 and trace amounts of labile iron extracellularly and/or intracellularly (Nauman et al., Systematic Review of Intravenous Ascorbate in Cancer Clinical Trials. Antioxidants (Basel) 2018, 7 (7), 89). We performed the same DCFDA assay with KS1 and ascorbate at pharmacological doses of 2 mM for 7 h in both SCC-61 and PC3 cell lines. ROS production was analyzed and reported (FIG. 11) using the similar measurements as above. Ligand specificity is commonly determined by pretreating the cells with high concentrations of blockers. We used superoxide dismutase (SOD), an enzyme that selectively suppresses accumulation of superoxide peroxide anions (Bielski et al., Chemistry of ascorbic acid radicals. in Ascorbic Acid: Chemistry, Metabolism, and Uses. Chapter 1982, 4, 81-100).

Work on `O=C1O/C(=C/Cc2ccc(OCC[18F])cc2)C(O)=C1O` [[^18F]KS2] yielded an intact in serum (Ex vivo serum stability) of ~80%.

For `C#Cc1cccc(Nc2ncnc3cc(OCCOC)c(OCCOC)cc23)c1` [erlotinib], the pIC50 (SCC-61 cells) is given as < 4.30.

For `O=C1O/C(=C/Cc2ccc(OCCF)cc2)C(O)=C1O` [KS2], the pIC50 (SCC-61 cell line (HNSCC); Example 7, 48 h) was 3.78, the pIC50 (PC3 cell line; Example 7, 48 h) was 3.60 and the “higher selectivity between the two cell lines compared to ascorbate selectivity” value ([1]; Example 4, SCC-61 vs rSCC-61, MitoSOX fluorescence) was ~10 fold. The “decrease of fluorescent uptake by SOD pretreatment” value ([1]; SCC-61 cells, SOD (1.0 mM) for 60 min) was ~30%.

For `O=C1O[C@H]([C@@H](O)CO)C(O)=C1O` [ascorbate, ascorbic acid, reference compound], the pIC50 (SCC-61 cell line (HNSCC); Homo sapiens, Example 7, 48 h) was 3.09, the pIC50 (SCC-61 cell line (HNSCC); Homo sapiens, Example 13) was 2.86 and the pIC50 (PC3 cell line; Homo sapiens, PC-3, Example 7, 48 h) was 2.95. The pIC50 (PC3 cell line; Homo sapiens, PC-3, Example 13) was 2.85, the “fluorescence intensity (ROS generation) at pharmacological dose” value [2] was “also increased, but not as with KS1” and the “MitoSOX fluorescence in SCC-61 compared to rSCC-61 cells” value ([1]; 10.0 μM, 1 h incubation) was “higher fluorescence”.
